# In patent US12728124B2, “Medical use of cystic fibrosis transmembrane conductance regulator (CFTR) modulators” (priority 2020, dated 2026):
# What was measured:
# CFTR [1] = molecular target: T1, CFTR (Homo sapiens, UniProt P13569); assay: CFTR expression by Western blotting in HPMECs stimulated with plasma from patients with severe COVID-19; type: cell-based; conditions: pretreated 10 μmol/L Ivacaftor 24 hours, then 20% (v/v) severe COVID-19 plasma for 24 h; Western blot, densitometry
# Procedure: CFTR expression in endothelial cells was assessed by Western blotting. HPMECs were grown in 6 well plates to confluence. The confluent cells were pretreated with 10 μmol/L Ivacaftor (Cayman chemical) for 24 hours and the next day were stimulated with the above described plasma from COVID-19 patients or healthy donors for 24 h. As positive control, cells were stimulated with the plasma from COVID-19 patients alone (in the absence of CFTR modulators). Plasma samples were diluted to 20% (v/v) for CFTR immunoblotting.
# (§1) Cells were lysed in RIPA buffer and protein concentration was measured by BCA assay and samples were stored at −80° C. or immediately analysed by Western blot. Western blots were performed using 7.5% gel. After gel transfer, the blot membrane was incubated for 1 h in 5% milk diluted in tris buffer saline with tween 0.1% (TBS-T) followed by incubation for 24 h with CFTR antibody as the primary antibody diluted 1:500 in TBS-T. The next day, the membrane was incubated for 2 h in donkey anti rabbit as the secondary antibody diluted 1:10000 in TBS-T.
# [2] = test system: S. pneumoniae infected mice; assay: S. pneumoniae infected mice, Ivacaftor pre-treatment: lung protein leakage, survival, BALF immune cells; type: in vivo, mouse
# [3] = test system: human pulmonary microvascular endothelial cells (HPMECs); assay: Endothelial calcium concentration (fura-2 340/380 ratio) in HPMECs stimulated with pneumolysin; type: cell-based; conditions: 10 μmol/L Ivacaftor for 30 min, then PLY 0.25 μg/ml for 30 min
# Procedure: Permeability of endothelial cells has been additionally assessed by measuring the endothelial calcium concentration as follows: Increases in the endothelial calcium concentration represent a key mechanism that underlies the increase endothelial cell permeability. Increased endothelial calcium leads to contraction of the cells and increase gap formation between endothelial cells that lead to increased permeability. In this measurement, HPMECs were cultured in channel slides to confluence. The confluent cells were incubated for 30 min with Hanks Balanced Salt Solution containing 5% fetal bovine serum (FBS) and 10 μmol/L of the calcium sensitive dye fura-2-acetoxymethyl ester (fura-2AM) dissolved in Pluronic F-127 (20% solution in DMSO). The cells were then mounted in a heated chamber at 37° C. and perfused with Hank's salt solution containing 5% FBS with 10 μmol/L Ivacaftor (Cayman chemical) for 30 min followed by PLY (0.25 μg/ml) stimulation for 30 min. Fura-2 fluorescence was excited by monochromatic illumination at wavelength 340 and 380 nm. After background correction, the 340/380 ratio was calculated using TillVision 4.0 software (Till Photonics Germany) as a measure of endothelial calcium concentration. As positive or negative controls, cells were stimulated with only pneumolysin or non-treated cells were used, respectively.
# [4] = test system: human pulmonary microvascular endothelial cells (HPMECs); assay: Transendothelial electrical resistance (ECIS) of HPMECs stimulated with plasma from patients with severe COVID-19; type: cell-based; conditions: pretreated 24 hours with 10 μmol/L Ivacaftor or 5 μmol/L Lumacaftor, then 10% (v/v) severe COVID-19 plasma for 24 h
# CFTR [5] = molecular target: T1, CFTR; assay: CFTR expression by Western blotting in HPMECs stimulated with pneumolysin; type: cell-based; conditions: pretreated 10 μmol/L Ivacaftor 24 hours, then 0.25 μg/ml PLY for 18 h; Western blot
# Procedure: as §1, with “CFTR expression in endothelial cells was assessed by Western blotting. HPMECs were grown in 6 well plates to confluence. The confluent cells were pretreated with 10 μmol/L Ivacaftor (Cayman chemical) for 24 hours and the next day were stimulated with 0.25 μg/ml PLY for 18 h. Cells” for “Cells”, “by western” for “by Western”
# [6] = test system: human pulmonary microvascular endothelial cells (HPMECs); type: cell-based; conditions: pretreated 24 hours with 10 μmol/L Ivacaftor or 5 μmol/L Lumacaftor, then 0.25 μg/ml pneumolysin; vs pneumolysin alone
# [7] = test system: S. pneumoniae infected mice; assay: S. pneumoniae infected mice, Ivacaftor post-treatment: lung protein leakage; type: in vivo, mouse; conditions: Ivacaftor 2 mg/kg i.p. post-treatment from 6 hours post-infection
# CFTR [8] = molecular target: T2, CFTR (Mus musculus, UniProt P26361); assay: CFTR expression by Western blotting in lungs of S. pneumoniae infected mice; type: in vivo; conditions: Ivacaftor 2 mg/kg i.p. pre-treatment; Western blot
# T2 construct: Ivacaftor pre-treatment stabilized the expression of CFTR in lungs of mice infected with S. pneumoniae; from tissue; host or cells: mouse lung tissue (mice from Charles River, Germany)
# [9] = Ivacaftor 2 mg/kg i.p. pre-treatment, S. pneumoniae infected mice, 48 h p.i., FACS
# T1 sequence (P13569 whole entry, looked up): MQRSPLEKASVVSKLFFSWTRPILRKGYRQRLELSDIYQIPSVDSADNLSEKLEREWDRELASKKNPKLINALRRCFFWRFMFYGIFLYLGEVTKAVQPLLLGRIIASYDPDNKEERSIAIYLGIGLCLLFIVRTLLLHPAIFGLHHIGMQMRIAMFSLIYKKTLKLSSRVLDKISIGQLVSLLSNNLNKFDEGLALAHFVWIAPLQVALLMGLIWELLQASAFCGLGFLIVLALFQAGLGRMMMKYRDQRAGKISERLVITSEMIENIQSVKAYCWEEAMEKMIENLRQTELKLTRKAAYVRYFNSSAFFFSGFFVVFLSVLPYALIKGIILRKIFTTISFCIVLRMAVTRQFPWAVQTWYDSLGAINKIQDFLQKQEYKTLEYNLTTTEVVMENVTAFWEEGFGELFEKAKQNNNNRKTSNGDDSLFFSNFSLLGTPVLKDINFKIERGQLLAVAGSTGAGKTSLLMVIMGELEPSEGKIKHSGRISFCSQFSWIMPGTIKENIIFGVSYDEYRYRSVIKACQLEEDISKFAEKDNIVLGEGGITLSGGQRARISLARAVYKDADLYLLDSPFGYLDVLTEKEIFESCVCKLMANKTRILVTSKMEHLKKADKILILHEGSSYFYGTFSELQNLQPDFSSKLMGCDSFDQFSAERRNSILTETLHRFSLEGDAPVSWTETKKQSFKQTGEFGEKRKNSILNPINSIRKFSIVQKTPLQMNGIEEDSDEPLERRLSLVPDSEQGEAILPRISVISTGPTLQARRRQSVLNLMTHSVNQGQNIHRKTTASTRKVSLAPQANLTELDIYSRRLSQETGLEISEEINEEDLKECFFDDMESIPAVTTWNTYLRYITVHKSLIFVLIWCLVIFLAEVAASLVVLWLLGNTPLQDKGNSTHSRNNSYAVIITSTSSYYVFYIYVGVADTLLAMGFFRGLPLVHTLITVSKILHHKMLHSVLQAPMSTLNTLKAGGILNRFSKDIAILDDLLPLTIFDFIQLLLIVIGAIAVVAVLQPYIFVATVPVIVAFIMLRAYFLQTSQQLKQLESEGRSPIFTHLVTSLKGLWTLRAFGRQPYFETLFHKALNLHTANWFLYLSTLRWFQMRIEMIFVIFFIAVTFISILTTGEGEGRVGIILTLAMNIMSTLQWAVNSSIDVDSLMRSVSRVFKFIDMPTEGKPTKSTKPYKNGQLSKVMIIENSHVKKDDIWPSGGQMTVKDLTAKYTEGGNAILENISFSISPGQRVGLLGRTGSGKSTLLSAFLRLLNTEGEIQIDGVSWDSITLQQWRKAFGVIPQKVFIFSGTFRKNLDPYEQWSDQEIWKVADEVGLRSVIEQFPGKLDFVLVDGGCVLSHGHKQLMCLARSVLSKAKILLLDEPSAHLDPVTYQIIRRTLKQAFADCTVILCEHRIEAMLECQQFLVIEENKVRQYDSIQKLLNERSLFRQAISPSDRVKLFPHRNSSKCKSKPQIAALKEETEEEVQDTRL
# T2 sequence (P26361 whole entry): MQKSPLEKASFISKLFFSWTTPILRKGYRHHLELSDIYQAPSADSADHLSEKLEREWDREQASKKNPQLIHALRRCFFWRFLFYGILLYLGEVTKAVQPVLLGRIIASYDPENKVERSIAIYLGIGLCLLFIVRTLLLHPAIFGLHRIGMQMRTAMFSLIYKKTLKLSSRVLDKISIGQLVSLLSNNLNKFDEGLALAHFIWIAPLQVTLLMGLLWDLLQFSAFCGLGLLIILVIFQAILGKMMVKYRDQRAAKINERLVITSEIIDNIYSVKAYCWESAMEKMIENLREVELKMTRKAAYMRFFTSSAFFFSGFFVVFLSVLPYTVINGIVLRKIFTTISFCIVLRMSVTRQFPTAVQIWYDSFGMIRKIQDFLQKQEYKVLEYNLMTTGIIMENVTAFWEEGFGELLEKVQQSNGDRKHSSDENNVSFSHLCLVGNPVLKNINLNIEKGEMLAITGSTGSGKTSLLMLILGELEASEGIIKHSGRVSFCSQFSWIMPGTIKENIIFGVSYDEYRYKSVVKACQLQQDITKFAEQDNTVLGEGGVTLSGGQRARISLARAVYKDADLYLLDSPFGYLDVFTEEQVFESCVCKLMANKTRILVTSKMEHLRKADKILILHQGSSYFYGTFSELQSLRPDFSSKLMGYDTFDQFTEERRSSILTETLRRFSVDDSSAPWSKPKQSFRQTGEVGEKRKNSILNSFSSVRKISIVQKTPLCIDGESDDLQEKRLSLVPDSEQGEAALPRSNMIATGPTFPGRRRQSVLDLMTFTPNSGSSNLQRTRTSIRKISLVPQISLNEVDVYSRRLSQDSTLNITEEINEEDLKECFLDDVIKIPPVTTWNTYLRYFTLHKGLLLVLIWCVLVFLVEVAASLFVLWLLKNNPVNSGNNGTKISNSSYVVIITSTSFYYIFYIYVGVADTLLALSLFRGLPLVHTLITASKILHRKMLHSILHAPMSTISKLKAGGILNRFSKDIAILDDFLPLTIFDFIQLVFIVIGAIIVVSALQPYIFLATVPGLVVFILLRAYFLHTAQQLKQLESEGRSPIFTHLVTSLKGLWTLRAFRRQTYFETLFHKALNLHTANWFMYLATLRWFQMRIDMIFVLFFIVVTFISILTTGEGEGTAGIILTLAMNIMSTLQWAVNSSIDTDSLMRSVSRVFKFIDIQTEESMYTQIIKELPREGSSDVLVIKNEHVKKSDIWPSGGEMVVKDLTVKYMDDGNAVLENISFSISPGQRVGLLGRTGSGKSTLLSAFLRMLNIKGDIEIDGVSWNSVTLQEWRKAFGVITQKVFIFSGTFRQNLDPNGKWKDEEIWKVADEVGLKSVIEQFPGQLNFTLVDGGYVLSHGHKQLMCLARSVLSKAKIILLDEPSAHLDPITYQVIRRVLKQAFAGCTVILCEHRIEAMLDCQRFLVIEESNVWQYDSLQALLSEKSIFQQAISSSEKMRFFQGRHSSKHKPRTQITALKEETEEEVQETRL
Compound,CFTR expression in HPMECs after stimulation with plasma from COVID-19 patients (CFTR [1]),survival rate in S. pneumoniae infected mice ([2]; Ivacaftor 2 mg/kg i.p. pre-treatment),"endogenous mouse serum albumin BALF/plasma ratio (protein leakage into the lung) ([2]; Ivacaftor 2 mg/kg i.p. pre-treatment from 24 h before infection, 48 h post infection with S. pneumoniae)","exogenous human serum albumin (HSA) BALF/plasma ratio (protein leakage into the lung) ([2]; Ivacaftor 2 mg/kg i.p. pre-treatment from 24 h before infection, HSA i.v. 1 h before BAL, 48 h post infection)","inflammatory macrophages in BALF [2, 9]","leukocytes in BALF [2, 9]","polymorphonuclear leukocytes (PMN) in BALF [2, 9]",endothelial calcium concentration ([Ca2+]i) after pneumolysin stimulation [3],transendothelial electrical resistance of HPMECs after stimulation with plasma from COVID-19 patients [4],CFTR expression in HPMECs after pneumolysin stimulation (CFTR [5]),transendothelial electrical resistance of HPMEC monolayer after pneumolysin stimulation [6],endogenous mouse serum albumin BALF/plasma ratio (protein leakage into the lung) ([7]; 48 h post infection with S. pneumoniae),"exogenous human serum albumin (HSA) BALF/plasma ratio (protein leakage into the lung) ([7]; HSA i.v. 1 h before BAL, 48 h post infection)",CFTR expression in lungs of S. pneumoniae infected mice (CFTR [8])
"CC(C)(C)c1cc(C(C)(C)C)c(NC(=O)c2c[nH]c3ccccc3c2=O)cc1O [Ivacaftor, N-(5-hydroxy-2,4-ditert-butyl-phenyl)-4-oxo-1H-quinoline-3-carboxamide]",CFTR expression comparable to control cells,increased survival rate,reduced protein leakage into the lung,reduced protein leakage into the lung,decreased the levels of all three inflammatory cell subsets in the BALF,decreased the levels of all three inflammatory cell subsets in the BALF,decreased the levels of all three inflammatory cell subsets in the BALF,lesser increase,less reduced transendothelial electrical resistance,CFTR expression comparable to control cells,less reduced resistance,reduced protein leakage into the lung,reduced protein leakage into the lung,stabilized expression of CFTR
"Cc1ccc(NC(=O)C2(c3ccc4c(c3)OC(F)(F)O4)CC2)nc1-c1cccc(C(=O)O)c1 [Lumacaftor, 3-[6-({[1-(2,2-difluoro-1,3-benzodioxol-5-yl)cyclopropyl]carbonyl}amino)-3-methylpyridin-2-yl]benzoic acid]",–,–,–,–,–,–,–,–,less reduced transendothelial electrical resistance,–,less reduced resistance,–,–,–
